Values quoted from earlier work, collected in patent US20240424053A1, “METHODS AND COMPOSITIONS FOR PROVIDING MYOCARDIAL PROTECTION AND TREATING MYOCARDIAL STRESS AND FIBROSIS” (Tufts Medical Center, Inc., priority 2021, published 2024).

Molecular target: T1, Xa (Homo sapiens, UniProt P00742)
T1 construct: host or cells: HF patients
Details: in vivo; cited from earlier work

T1 sequence (P00742 235-488 limits assumed): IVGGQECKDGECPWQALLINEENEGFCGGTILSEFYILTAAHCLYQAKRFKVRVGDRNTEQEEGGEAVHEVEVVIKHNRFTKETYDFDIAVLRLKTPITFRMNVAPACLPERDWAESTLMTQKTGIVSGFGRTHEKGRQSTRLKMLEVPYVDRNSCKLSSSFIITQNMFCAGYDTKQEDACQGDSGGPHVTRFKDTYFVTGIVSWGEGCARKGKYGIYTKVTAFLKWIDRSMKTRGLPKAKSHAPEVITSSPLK
T1 sequence (P00742 41-179 partner limits assumed): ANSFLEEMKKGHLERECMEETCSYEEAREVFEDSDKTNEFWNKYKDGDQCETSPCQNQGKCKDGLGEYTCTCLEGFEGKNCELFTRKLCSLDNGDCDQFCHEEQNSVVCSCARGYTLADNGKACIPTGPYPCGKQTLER

O=C(NC[C@H]1CN(c2ccc(N3CCOCC3=O)cc2)C(=O)O1)c1ccc(Cl)s1 [rivaroxaban]
clinical benefit in HF patients: no clear benefit
